Structures can show the parent of a compound that is named as a salt. Where two headings read alike, the source gives them in different places.
What was measured:
[1] = target: PI3Kγ (p110γ) Recombinant Human Protein (Homo sapiens (Human), UniProt P48736); assay: PI3K-γ scintillation proximity assay; format: biochemical; conditions: 20 μM PIP2, 2 μM ATP, 13 nM PI3Kγ, 120 min, room temperature
Outline: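 Radiometric SPA in 20 mM MOPS pH 6.7, 10 mM MgCl2, 5 mM DTT, 0.03% CHAPS, 2% DMSO. Stopped with EDTA and WGA SPA beads for scintillation counting. IC50 fitted from % solvent-control activity versus log concentration.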

[2] = target: PI3Kδ (p110δ/p85α) Recombinant Human Protein (Homo sapiens (Human), UniProt O00329); assay: PI3Kδ scintillation proximity assay; format: biochemical; conditions: 20 μM PIP2, 2 μM ATP, 3.4 nM PI3Kδ, 120 min, room temperature; read-out: PI3Kδ IC50
Outline: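 Recombinant human p110δ/p85α was run at room temperature in 20 mM MOPS pH 6.7, 10 mM MgCl2, 5 mM DTT, 0.03% CHAPS, 2% DMSO. Substrates were 20 µM PIP2 and 2 µM ATP with [γ-33P]ATP. Product was captured overnight on WGA SPA beads and counted by scintillation; IC50 fitted from percent of solvent control versus log concentration.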

[3] = system: Phosphorylated Ribosomal Protein S6 (RPS6) in THP-1 cells; assay: THP-1 RPS6 ELISA assay; format: cell-based, Human; conditions: serum starved, 2 h compound, 10 nM MCP-1 for 15 min, phospho-RPS6 ELISA, read-out: PI3Kγ_THP1_RPS6_ELISA IC50
Procedure: Example A. THP-1 RPS6 ELISA Assay
To measure the Phosphorylated Ribosomal Protein S6 (RPS6) in cell lysates, THP-1 cells (Human Acute Monocytic Leukemia) are purchased from ATCC (Manassas, Va.) and maintained in RPMI with 10% FBS (Gibco/Life Technologies, Carlsbad, Calif.). For the assay, THP-1 cells are serum starved overnight in RPMI, then plated in RPMI (2×10^5 cells/well in 90 μL) into 96-well flat-bottom tissue culture treated plates (Corning, Corning, N.Y.), in the presence or absence of a concentration range of test compounds. Covered plates are incubated for 2 hours at 37° C., 5% CO2 then treated with or without 10 nM MCP-1 (MYBioSource, San Diego, Calif.) for 15 minutes at 37° C., 5% CO2. Plates are centrifuged at 1600 RPM and supernatants are removed. Cells are lysed in Lysis Buffer (Cell Signaling, Danvers, Mass.) with Protease Inhibitor (Calbiochem/EMD, Germany), PMSF (Sigma, St Louis Mo.), HALTS (Thermo Fisher, Rockford, Ill.) for 30 min on wet ice. Cell lysates are frozen at −80° C. before testing. The lysates are tested in the Human/Mouse/Rat Phospho-RPS6 ELISA (R&D Systems, Inc. Minn, Minn.). The plate is measured using a microplate reader (SpectraMax M5—Molecular Devices, LLC Sunnyvale, Calif.) set to 450 nm with a wavelength correction of 540. IC50 determination is performed by fitting the curve of inhibitor percent inhibition versus the log of the inhibitor concentration using the GraphPad Prism 5.0 software.

[4] = Homo sapiens, THP-1, THP-1 cells

PI3Kδ (p110δ/p85α) Recombinant Human Protein, sequence (O00329 whole entry): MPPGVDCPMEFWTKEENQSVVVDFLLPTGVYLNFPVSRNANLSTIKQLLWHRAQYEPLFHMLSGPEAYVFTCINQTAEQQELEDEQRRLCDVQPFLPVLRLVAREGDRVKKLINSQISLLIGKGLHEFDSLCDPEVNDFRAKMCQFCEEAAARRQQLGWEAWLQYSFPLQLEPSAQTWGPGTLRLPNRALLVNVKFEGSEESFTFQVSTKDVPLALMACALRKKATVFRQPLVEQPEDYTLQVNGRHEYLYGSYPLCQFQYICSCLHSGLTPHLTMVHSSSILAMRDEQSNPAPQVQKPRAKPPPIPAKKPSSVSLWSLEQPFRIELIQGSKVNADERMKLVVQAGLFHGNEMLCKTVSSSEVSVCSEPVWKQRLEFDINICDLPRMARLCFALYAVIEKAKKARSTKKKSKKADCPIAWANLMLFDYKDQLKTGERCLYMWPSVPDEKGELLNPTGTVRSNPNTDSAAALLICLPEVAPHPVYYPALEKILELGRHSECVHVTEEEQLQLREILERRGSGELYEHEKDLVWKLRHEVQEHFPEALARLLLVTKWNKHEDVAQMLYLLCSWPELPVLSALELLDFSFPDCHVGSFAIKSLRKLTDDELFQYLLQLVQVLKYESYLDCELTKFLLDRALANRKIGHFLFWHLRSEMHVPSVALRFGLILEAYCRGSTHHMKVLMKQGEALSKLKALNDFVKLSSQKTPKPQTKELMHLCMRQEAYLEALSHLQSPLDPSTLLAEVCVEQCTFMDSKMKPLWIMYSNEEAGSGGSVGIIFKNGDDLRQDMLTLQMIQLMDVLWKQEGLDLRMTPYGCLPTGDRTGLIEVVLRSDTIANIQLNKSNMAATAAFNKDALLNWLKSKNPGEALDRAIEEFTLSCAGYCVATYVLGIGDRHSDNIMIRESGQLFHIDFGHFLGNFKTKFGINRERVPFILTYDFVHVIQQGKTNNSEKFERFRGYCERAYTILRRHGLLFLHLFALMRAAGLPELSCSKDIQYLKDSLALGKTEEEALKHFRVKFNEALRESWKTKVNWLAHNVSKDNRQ
PI3Kδ (p110δ/p85α) Recombinant Human Protein, sequence (P27986 whole entry partner): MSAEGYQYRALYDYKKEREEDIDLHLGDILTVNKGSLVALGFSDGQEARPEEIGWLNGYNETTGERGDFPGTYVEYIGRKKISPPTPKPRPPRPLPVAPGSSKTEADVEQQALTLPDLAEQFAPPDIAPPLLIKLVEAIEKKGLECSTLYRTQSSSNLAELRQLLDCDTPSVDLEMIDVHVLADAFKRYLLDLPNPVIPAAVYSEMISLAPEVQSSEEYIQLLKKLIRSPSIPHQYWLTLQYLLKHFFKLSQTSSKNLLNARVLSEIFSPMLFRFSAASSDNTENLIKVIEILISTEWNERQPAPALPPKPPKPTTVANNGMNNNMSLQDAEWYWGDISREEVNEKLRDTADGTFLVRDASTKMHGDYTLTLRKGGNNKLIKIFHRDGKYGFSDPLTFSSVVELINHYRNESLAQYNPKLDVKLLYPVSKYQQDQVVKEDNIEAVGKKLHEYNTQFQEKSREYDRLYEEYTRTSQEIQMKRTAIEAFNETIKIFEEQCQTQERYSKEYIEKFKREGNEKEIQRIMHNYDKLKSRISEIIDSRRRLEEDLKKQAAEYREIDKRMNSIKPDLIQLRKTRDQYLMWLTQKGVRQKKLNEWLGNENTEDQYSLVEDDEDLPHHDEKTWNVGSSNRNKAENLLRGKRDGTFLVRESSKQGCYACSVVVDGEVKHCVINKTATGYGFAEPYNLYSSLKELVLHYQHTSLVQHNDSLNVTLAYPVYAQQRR
PI3Kγ (p110γ) Recombinant Human Protein, sequence (P48736 whole entry): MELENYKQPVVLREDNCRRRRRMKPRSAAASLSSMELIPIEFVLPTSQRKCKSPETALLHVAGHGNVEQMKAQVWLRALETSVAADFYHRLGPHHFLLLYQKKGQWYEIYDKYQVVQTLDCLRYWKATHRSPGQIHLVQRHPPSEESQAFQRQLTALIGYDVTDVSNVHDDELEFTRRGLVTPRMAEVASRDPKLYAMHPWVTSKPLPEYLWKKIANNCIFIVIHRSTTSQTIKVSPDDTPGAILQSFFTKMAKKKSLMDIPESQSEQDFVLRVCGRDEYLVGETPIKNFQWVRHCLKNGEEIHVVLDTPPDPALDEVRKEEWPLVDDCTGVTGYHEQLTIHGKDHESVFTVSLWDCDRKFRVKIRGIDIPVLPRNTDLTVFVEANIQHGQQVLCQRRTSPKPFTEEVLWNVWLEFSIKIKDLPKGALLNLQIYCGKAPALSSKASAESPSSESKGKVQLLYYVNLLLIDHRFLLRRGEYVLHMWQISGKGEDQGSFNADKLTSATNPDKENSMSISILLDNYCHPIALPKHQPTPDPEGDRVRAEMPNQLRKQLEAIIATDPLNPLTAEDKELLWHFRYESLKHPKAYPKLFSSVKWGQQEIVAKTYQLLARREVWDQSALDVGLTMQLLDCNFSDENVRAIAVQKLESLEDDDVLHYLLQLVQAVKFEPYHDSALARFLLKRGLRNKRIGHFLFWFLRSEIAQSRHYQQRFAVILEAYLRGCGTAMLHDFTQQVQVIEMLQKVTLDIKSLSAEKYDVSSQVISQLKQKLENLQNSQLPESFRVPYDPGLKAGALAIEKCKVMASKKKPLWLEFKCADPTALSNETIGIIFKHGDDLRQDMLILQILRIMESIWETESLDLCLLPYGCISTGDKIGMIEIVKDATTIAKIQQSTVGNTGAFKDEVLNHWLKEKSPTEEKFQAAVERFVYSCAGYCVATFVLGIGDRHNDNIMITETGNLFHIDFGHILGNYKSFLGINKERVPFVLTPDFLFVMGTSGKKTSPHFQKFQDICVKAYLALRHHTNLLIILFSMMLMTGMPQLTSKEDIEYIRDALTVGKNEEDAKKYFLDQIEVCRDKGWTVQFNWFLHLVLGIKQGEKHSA

Compound	IC50 [1]	IC50 [2]	IC50 ([3]; THP-1 cells)	IC50 [3, 4]
Cc1ccc(C(C)(O)C(F)F)cc1-c1cnc2c(N)nc(-c3ccnn3C)cn12 (single isomer, unassigned) [Example 30, 2-(3-(8-Amino-6-(1-methyl-1H-pyrazol-5-yl)imidazo[1,2-a]pyrazin-3-yl)-4-methylphenyl)-1,1-difluoropropan-2-ol]	< 100 nM	100 to 500 nM	100 to 500 nM	–
Cc1ccc(C(C)(O)C(F)F)cc1-c1cnc2c(N)nc(-c3ccnc(CO)c3)cn12 (single isomer, unassigned) [Example 44, 2-(3-(8-Amino-6-(2-(hydroxymethyl)pyridin-4-yl)imidazo[1,2-a]pyrazin-3-yl)-4-methylphenyl)-1,1-difluoropropan-2-ol]	< 100 nM	< 100 nM	–	< 100 nM
Cc1ccc(C(C)(O)C(F)F)cc1-c1cnc2c(N)nc(-c3ccnc(CO)c3)cn12 (single isomer, unassigned) [Example 45, 2-(3-(8-Amino-6-(2-(hydroxymethyl)pyridin-4-yl)imidazo[1,2-a]pyrazin-3-yl)-4-methylphenyl)-1,1-difluoropropan-2-ol]	< 100 nM	< 100 nM	100 to 500 nM	–
Cc1ccc(C(C)(O)C(F)F)cc1-c1cnc2c(N)nc(-c3ccnn3C)nn12 (single isomer, unassigned) [Example 51, 2-(3-(4-Amino-2-(1-methyl-1H-pyrazol-5-yl)imidazo[2,1-f][1,2,4]triazin-7-yl)-4-methylphenyl)-1,1-difluoropropan-2-ol trifluoroacetate salt]	< 100 nM	< 100 nM	–	< 100 nM
Cc1ncc(-c2nc(N)c3ncc(-c4cc(C(C)(O)C(F)F)ccc4C)n3n2)o1 (single isomer, unassigned) [Example 52, 2-(3-(4-Amino-2-(2-methyloxazol-5-yl)imidazo[2,1-f][1,2,4]triazin-7-yl)-4-methylphenyl)-1,1-difluoropropan-2-ol trifluoroacetate salt]	< 100 nM	100 to 500 nM	–	100 to 500 nM
Cc1ccc(C(C)(O)C(F)(F)C(F)(F)F)cc1-c1cnc2c(N)nc(C(F)(F)F)cn12 (single isomer, unassigned) [Example 60, 2-(3-(8-Amino-6-(trifluoromethyl)imidazo[1,2-a]pyrazin-3-yl)-4-methylphenyl)-3,3,4,4,4-pentafluorobutan-2-ol]	< 100 nM	500 to 2000 nM	–	> 1000 nM
Cc1ccc(C(C)(O)C(F)(F)F)cc1-c1cnc2c(N)nc(C(=O)NCC(C)(C)O)cn12 (single isomer, unassigned) [Example 63, 8-amino-N-(2-hydroxy-2-methylpropyl)-3-(2-methyl-5-(1,1,1-trifluoro-2-hydroxypropan-2-yl)phenyl)imidazo[1,2-a]pyrazine-6-carboxamide]	< 100 nM	100 to 500 nM	100 to 500 nM	–
[2H]C([2H])([2H])n1nccc1-c1cn2c(-c3cc(C(O)(CO)C(F)(F)F)ccc3C)cnc2c(N)n1 (single isomer, unassigned) [Example 66, 2-(3-(8-Amino-6-(1-(methyl-d3)-1H-pyrazol-5-yl)imidazo[1,2-a]pyrazin-3-yl)-4-methylphenyl)-3,3,3-trifluoropropane-1,2-diol]	< 100 nM	< 100 nM	–	< 100 nM
Cc1ccc(C(O)(CO)C(F)(F)F)cc1-c1cnc2c(N)nc(C(F)(F)F)cn12 (single isomer, unassigned) [Example 72, 2-(3-(8-Amino-6-(trifluoromethyl)imidazo[1,2-a]pyrazin-3-yl)-4-methylphenyl)-3,3,3-trifluoropropane-1,2-diol]	< 100 nM	100 to 500 nM	< 100 nM	–
Cc1ccc(C(O)(CO)C(F)(F)F)cc1-c1cnc2c(N)nc(C(F)(F)F)cn12 (single isomer, unassigned) [Example 73, 2-(3-(8-Amino-6-(trifluoromethyl)imidazo[1,2-a]pyrazin-3-yl)-4-methylphenyl)-3,3,3-trifluoropropane-1,2-diol]	< 100 nM	100 to 500 nM	500 to 1000 nM	–
CCOC(=O)C1CC1c1cn2c(-c3cc(C(C)(O)C(F)F)ccc3C)cnc2c(N)n1 (single isomer, unassigned) [Example 75, Ethyl 2-(8-amino-3-(5-(1,1-difluoro-2-hydroxypropan-2-yl)-2-methylphenyl)imidazo[1,2-a]pyrazin-6-yl)cyclopropane-1-carboxylate trifluoroacetate salt]	< 100 nM	100 to 500 nM	–	100 to 500 nM
Cc1ccc(C(C)(O)C(F)F)cc1-c1cnc2c(N)nc(C3CC3CO)cn12 (single isomer, unassigned) [Example 79, 2-(3-(8-Amino-6-(2-(hydroxymethyl)cyclopropyl)imidazo[1,2-a]pyrazin-3-yl)-4-methylphenyl)-1,1-difluoropropan-2-ol]	< 100 nM	500 to 2000 nM	–	100 to 500 nM
Cc1ccc(C(C)(O)C(F)(F)F)cc1-c1cnc2c(N)nc(C(=O)N[C@@H](B(O)O)C3CCC3)cn12 (single isomer, unassigned) [Example 117]	< 100 nM	500 to 2000 nM	–	> 1000 nM
Cc1ccc(C(C)(O)C(F)F)cc1-c1cnc2c(N)nc(-c3ccc(C(C)O)nc3)cn12 (single isomer, unassigned) [Example 136, 2-(3-(8-Amino-6-(6-(1-hydroxyethyl)pyridin-3-yl)imidazo[1,2-a]pyrazin-3-yl)-4-methylphenyl)-1,1-difluoropropan-2-ol]	< 100 nM	100 to 500 nM	–	< 100 nM
Cc1ccc(C(C)(O)C(F)(F)F)cc1-c1cnc2c(N)nc(C3CC(CO)C3)cn12 (single isomer, unassigned) [Example 207, 2-(3-(8-amino-6-(3-(hydroxymethyl)cyclobutyl)imidazo[1,2-a]pyrazin-3-yl)-4-methylphenyl)-1,1,1-trifluoropropan-2-ol trifluoroacetate]	< 100 nM	< 100 nM	–	< 100 nM
Cc1ccc(C(C)(O)C(F)(F)F)cc1-c1cnc2c(N)nc(C3CC(CO)C3)cn12 (single isomer, unassigned) [Example 208, 2-(3-(8-amino-6-(3-(hydroxymethyl)cyclobutyl)imidazo[1,2-a]pyrazin-3-yl)-4-methylphenyl)-1,1,1-trifluoropropan-2-ol trifluoroacetate]	< 100 nM	< 100 nM	< 100 nM	–
[2H]C([2H])([2H])c1ccc(C(O)(C(C)O)C(F)(F)F)cc1-c1cnc2c(N)nc(C(F)(F)F)cn12 (single isomer, unassigned) [Example 233, 2-(3-(8-Amino-6-(trifluoromethyl)imidazo[1,2-a]pyrazin-3-yl)-4-(methyl-d3)phenyl)-1,1,1-trifluorobutane-2,3-diol trifluoroacetate salt]	< 100 nM	100 to 500 nM	–	100 to 500 nM
[2H]C([2H])([2H])c1ccc(C(C)(O)C(F)(F)F)cc1-c1cnc2c(N)nc(C(C)(C)O)cn12 (single isomer, unassigned) [Example 253, 2-(3-(8-Amino-6-(2-hydroxypropan-2-yl)imidazo[1,2-a]pyrazin-3-yl)-4-(methyl-d3)phenyl)-1,1,1-trifluoropropan-2-ol trifluoroacetate salt]	< 100 nM	100 to 500 nM	–	100 to 500 nM

— US10738057B2, “Tertiary alcohols as PI3K-γ inhibitors” (Incyte Corporation, priority 2017, dated 2020)
